In patent publication US4024277A, “Phosphoro-aminosulfenyl derivatives of benzofuran carbamates” (priority 1975, dated 1977):

What was measured:
southern armyworm = test: Systemic insecticidal activity (soil/water), southern armyworm; type: in vivo, Spodoptera eridania (Cramer); conditions: Spodoptera eridania, 48-hour exposure, read-out: % Kill, Southern Armyworm
Procedure: c. Systemic Insecticidal Acitivity (Soil/Water)
In this test, a candidate insecticide, in solution, is added to the soil of either uninfested pinto bean seedlings (Phaseolus vulgaris) or uninfested broad bean seedlings (Vicia faba var. Windsor). The plant species used depend on the insect species in the test. Usually, a 72-hour translocation period before infestation is required, followed by a 48-hour exposure period, before evaluation of the tests. The insect species used in the systemic tests are Mexican bean beetle, southern armyworm, pea aphid, and twospotted spider mite.

twospotted spider mite = test: Ovicidal activity against the twospotted spider mite; type: in vivo, Tetranychus urticae Koch; conditions: Tetranychus urticae, eggs, 7 to 10 days, read-out: % Kill (ovicidal)
Procedure: d. Ovicidal Activity Against the Twospotted Spider Mite
In this test, Pinto bean seedlings are infested with female twospotted spider mites; about 3-4 hours are allowed for egg deposition. Plants are then dipped in TEPP (tetraethylpyrophosphate-commercial emulsifiable concentrate (EC)) solution containing 936 ppm of active ingredient. TEPP kills motile forms on the leaf and promptly degrades without effecting the egg stage. Two to three hours after TEPP treatment the plants are again dipped -- this time into a candidate insecticide solution. The test plants are maintained for 7 to 10 days. Termination of exposure is determined by the time required to attain complete hatch in the untreated check.

plum curculio [1] = test: Initial insecticidal activity, plum curculio; type: in vivo, Conotrachelus nenuphar (Herbst); conditions: Conotrachelus nenuphar, 48-hour exposure, read-out: % Kill, Plum Curculio
Text: (§1) a. Initial Insecticidal Activity
(§2) In this test, a candidate insecticide, in solution, is applied to either infested or uninfested plants or containers by spraying or dipping. (The preferred test procedure varies with insect species. The dipping method is better than the spraying method, and vice versa, for certain species of insects. Also some species are better adapted to the test by infesting after the chemical treatment rather than before.) Once the tests have been established, a 48-hour exposure period is observed before reading the tests. Insect species included in these tests are Mexican bean beetle (Epilachna varivestis Mulsant), pea aphid [Acyrthosiphon pisum (Harris)], southern armyworm [Spodoptera eridania (Cramer)], twospotted spider mite (Tetranychus urticae Koch), large milkweed bug [Oncopeltus fasciatus (Dallas)], plum curculio [Conotrachelus nenuphar (Herbst)], confused flour beetle (Tribolium confusum Jacquelin duVal) and granary weevil [Sitophilus granarius (Linnaeus)]. Test results are set forth in Table I. A control sample, comprising the solution without the candidate insecticide, is also included.

house flies = test: Level I immersion test, house flies; type: in vivo, Musca domestica Linnaeus; conditions: HF, 5 mg/milliliter; for % Knockdown: 10 minutes after immersion; for mortality at 5000 µg/mL: Musca domestica, after 18-24 hours, read-out: % Kill
Procedure: e. Insecticidal Activity Against House Flies and German Cockroaches
Compounds of this invention were tested in a Level I test at 5 mg. of active compounds/milliliter of a solution of 40% acetone -- 60% water.
In this test a group of ten house flies (Musca domestica Linnaeus) were completely immersed in 25 ml. of the insecticidal test solution. After 10 seconds of immersion, the test solution is removed. The house flies are then transferred to holding cages lines with paper toweling. In the case of the house flies, the knockdown counts were recorded 10 minutes after termination of the immersion. The percent kill was recorded after 18-24 hours.

pea aphid = test: Seven-day residual insecticidal activity, pea aphid; type: in vivo, Acyrthosiphon pisum (Harris); conditions: Acyrthosiphon pisum, 48-hour exposure, read-out: % Kill, Pea Aphid
Text: (§3) b. Seven-Day Residual Insecticidal Activity
(§4) In this test, a candidate insecticide, in solution, is applied to uninfested plants or containers by dipping or spraying. A seven-day holding period is necessary before infestation. A 48-hour exposure period is observed before evaluation of the tests. The insect species used in this type of test are the same as those listed under initial activity.

Mexican bean beetle = test: Initial insecticidal activity, Mexican bean beetle; type: in vivo, Epilachna varivestis Mulsant; conditions: Epilachna varivestis, 48-hour exposure, read-out: % Kill, Mexican Bean Beetle
Text: as §1, §2

[2] = Mammalian toxicity, 14-day LD50 in rats; conditions: rat, in vivo, Wistar derived albino rats, method of Miller and Tainter
Text: The compounds of this invention are characterized by advantageous mammalian toxicity values when compared with values for related compounds. This is shown by comparative values obtained with Wistar derived albino rats in 14-day tests. The animals were fed, housed and watered in accordance with standard laboratory procedures. The 14-day LD50 determination was estimated in accord with the method of Miller and Tainter (Experimental Biology and Medicine, 57, pp. 261-264, 1944).

granary weevil = test: Initial insecticidal activity, granary weevil; type: in vivo, Sitophilus granarius (Linnaeus); conditions: Sitophilus granarius, 48-hour exposure, read-out: % Kill, Granary Weevil
Text: as §1, §2

large milkweed bug = test: Seven-day residual insecticidal activity, milkweed bug; type: in vivo, Oncopeltus fasciatus (Dallas); conditions: Oncopeltus fasciatus, 48-hour exposure, read-out: % Kill, Milkweed Bug
Text: as §3, §4

plum curculio [3] = test: Seven-day residual insecticidal activity, plum curculio; type: in vivo, Conotrachelus nenuphar (Herbst); conditions: Conotrachelus nenuphar, 48-hour exposure, read-out: % Kill, Plum Curculio
Text: as §3, §4

Row | Structure (SMILES) | mortality at 39 ppm (southern armyworm) [%] | mortality at 156 ppm (southern armyworm) [%] | mortality at 156 ppm (twospotted spider mite) [%] | mortality at 1250 ppm (twospotted spider mite) [%] | mortality at 39 ppm (plum curculio [1]) [%] | mortality at 156 ppm (plum curculio [1]) [%] | mortality at 1250 ppm (plum curculio [1]) [%] | % Knockdown (house flies) [%] | mortality at 5000 µg/mL (house flies) [%] | mortality at 39 ppm (pea aphid) [%] | mortality at 156 ppm (pea aphid) [%] | mortality at 1250 ppm (pea aphid) [%] | mortality at 39 ppm (Mexican bean beetle) [%] | mortality at 156 ppm (Mexican bean beetle) [%] | mortality at 1250 ppm (Mexican bean beetle) [%] | mortality at 39 ppm (large milkweed bug) [%] | mortality at 156 ppm (large milkweed bug) [%] | mortality at 1250 ppm (large milkweed bug) [%] | mortality at 39 ppm (plum curculio [3]) [%] | mortality at 156 ppm (plum curculio [3]) [%] | further results
1 | CCCOP(=O)(OCCC)N(C)SN(C)C(=O)Oc1cccc2c1OC(C)(C)C2 [2(d), 2,3-dihydro-2,2-dimethyl-7-benzofuranyl [(N-di-n-propoxyphosphinyl) (N-methyl)aminosulfenyl][methyl]carbamate] | 94 | 100 | 2 | 80 | 0 | 20 | 100 | 100 | 100 | 0 | 0 | 56 | 100 | 100 | 100 | 56 | 100 | 100 | 0 | 5 | mortality at 10 ppm (southern armyworm): 0%; LD50 at 336 h [2]: 152 mg/kg; mortality at 39 ppm (granary weevil): 88%; mortality at 156 ppm (granary weevil): 100%; mortality at 1250 ppm (granary weevil): 100%; mortality at 1250 ppm (plum curculio [3]): 86%
2 | CCCOP(=O)(OCCC)N(CCC)SN(C)C(=O)Oc1cccc2c1OC(C)(C)C2 [3(c)] | 0 | 95 | 0 | 70 | 5 | 5 | 77 | 100 | 100 | 0 | 0 | 73 | 100 | 100 | 100 | 5 | 90 | 100 | 5 | 10 | mortality at 10 ppm (southern armyworm): 0%; mortality at 39 ppm (granary weevil): 70%; mortality at 156 ppm (granary weevil): 90%; mortality at 1250 ppm (granary weevil): 100%; mortality at 1250 ppm (plum curculio [3]): 95%
3 | CCN(SN(C)C(=O)Oc1cccc2c1OC(C)(C)C2)P(=O)(OC)OC [5(c), 2,3-dihydro-2,2-dimethyl-7-benzofuranyl [(N-dimethoxyphosphinyl) (N-ethyl)aminosulfenyl][methyl]carbamate] | 60 | 100 | 0 | 38 | 50 | 85 | 100 | 100 | 100 | 0 | 0 | 62 | 78 | 100 | 100 | 0 | 100 | 100 | 0 | 0 | mortality at 1250 ppm (plum curculio [3]): 80%
4 | CC(C)OP(=O)(OC(C)C)N(C)SN(C)C(=O)Oc1cccc2c1OC(C)(C)C2 [6(c), 2,3-Dihydro-2,2-dimethyl-7-benzofuranyl [(N-diisopropoxyphosphinyl) (N-methyl)aminosulfenyl][methyl]carbamate] | 28 | 100 | 0 | 91 | 0 | 45 | 100 | 100 | 100 | 0 | 0 | 5 | 100 | 94 | 100 | 5 | 25 | 100 | 0 | 0 | mortality at 1250 ppm (plum curculio [3]): 100%
5 | CCCN(SN(C)C(=O)Oc1cccc2c1OC(C)(C)C2)P(=O)(Oc1ccccc1)Oc1ccccc1 [7(c)] | 0 | 0 | 0 | 0 | 20 | 50 | 65 | 40 | 0 | 0 | 0 | 0 | 95 | 94 | 100 | 26 | 21 | 60 | 5 | 0 | mortality at 1250 ppm (plum curculio [3]): 0%
6 | CCOP(=O)(OCC)N(CC)SN(C)C(=O)Oc1cccc2c1OC(C)(C)C2 [8(c), 2,3-Dihydro-2,2-dimethyl-7-benzofuranyl [(N-diethoxyphosphinyl) (N-ethyl)aminosulfenyl][methyl]carbamate] | 20 | 57 | 0 | 26 | 0 | 45 | 100 | 100 | 100 | 0 | 0 | 0 | 100 | 100 | 100 | 95 | 100 | 100 | 0 | 5 | mortality at 1250 ppm (plum curculio [3]): 100%
